Results as given in patent US20260022116A1, “IMIDAZOPYRIDINE COMPOUNDS, PREPARATION THEREOF AND THERAPEUTIC USES THEREOF” (SANOFI, priority 2022, published 2026).
Counter-ions that a name gives are not always drawn. Like-named read-outs stand apart in the source and are kept apart here.

Legend:
ERK5 [1] = molecular target: T1, ERK5 (Homo sapiens, UniProt Q13164); experiment: biochemical
Target sequence in this assay (Q13164 55-347 limits assumed): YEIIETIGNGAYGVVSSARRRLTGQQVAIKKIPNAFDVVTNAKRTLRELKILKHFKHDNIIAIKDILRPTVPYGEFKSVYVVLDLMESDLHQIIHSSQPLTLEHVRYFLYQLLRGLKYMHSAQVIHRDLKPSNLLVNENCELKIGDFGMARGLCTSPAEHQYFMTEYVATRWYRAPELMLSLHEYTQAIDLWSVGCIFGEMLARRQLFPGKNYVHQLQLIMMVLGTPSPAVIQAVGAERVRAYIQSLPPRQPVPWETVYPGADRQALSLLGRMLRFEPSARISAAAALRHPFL
Protocol: (§1) Two assays were performed to assess the ERK5 inhibitory activity of compounds of the Examples, a cell-based assay and a cell-free biochemical assay.
An assay was performed to measure the capacity of each compound to inhibit ERK5 enzymatic activity. Compound potency was evaluated by Time-Resolved Forster Resonance Energy Transfer (FRET system). […] A mixture of 1 mM ATP and 1 μM biotinylated synthetic peptide was added (Biosyntan GmbH). This synthetic peptide represents amino acids 30-52 of Eukaryotic translation initiation factor 4E-binding protein 1 (see, e.g., the sequence under accession No. NP_004086.1) biotinylated at the N-terminus.

ERK5 [2] = molecular target: T1, ERK5; experiment: cell-based
Target sequence in this assay (Q13164 whole entry): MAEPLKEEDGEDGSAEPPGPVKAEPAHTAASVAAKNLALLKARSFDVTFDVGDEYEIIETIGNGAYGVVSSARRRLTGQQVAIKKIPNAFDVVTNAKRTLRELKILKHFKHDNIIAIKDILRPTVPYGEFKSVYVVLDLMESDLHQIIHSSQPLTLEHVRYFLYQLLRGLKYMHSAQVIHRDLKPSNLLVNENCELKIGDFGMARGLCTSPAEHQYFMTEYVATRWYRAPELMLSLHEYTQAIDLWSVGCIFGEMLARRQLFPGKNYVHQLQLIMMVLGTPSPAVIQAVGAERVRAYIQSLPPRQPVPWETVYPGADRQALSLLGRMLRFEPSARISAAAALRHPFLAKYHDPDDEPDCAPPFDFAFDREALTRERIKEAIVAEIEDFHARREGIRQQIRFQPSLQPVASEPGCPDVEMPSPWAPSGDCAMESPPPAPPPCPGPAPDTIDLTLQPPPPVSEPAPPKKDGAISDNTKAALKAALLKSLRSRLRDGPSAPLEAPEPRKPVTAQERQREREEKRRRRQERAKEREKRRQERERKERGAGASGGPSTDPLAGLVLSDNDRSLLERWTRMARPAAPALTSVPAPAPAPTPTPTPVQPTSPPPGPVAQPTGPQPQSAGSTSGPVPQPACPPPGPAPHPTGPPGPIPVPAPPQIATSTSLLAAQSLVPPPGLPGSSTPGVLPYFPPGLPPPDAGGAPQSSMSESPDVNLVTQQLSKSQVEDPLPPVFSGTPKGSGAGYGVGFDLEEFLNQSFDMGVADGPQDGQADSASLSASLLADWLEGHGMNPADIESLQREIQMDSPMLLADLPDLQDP
Protocol: as §1
(§2) The renal cancer cell line SN12C was transduced by a lentivirus pGreenFire1 MEF2 EF1 Neo (ref TR030VA-N) from SBI using standard infection protocol. pGreenFire1 MEF2 EF1 Neo allows the expression of luciferase gene under the control of minimal promoter with MEF2 transcriptional response elements. Cells harboring the reporter construct were selected by geneticin treatment. The selected cells were then transposed by a piggyback based plasmid pCM4007 allowing the expression of constitutively activated MEK5DD under control of TREG3 promoter, a doxycycline regulated promoter. Transposed cells were selected by puromycin treatment. Upon doxycycline treatment (1 μg/ml) MEK5DD was expressed. MEK5DD activates ERK5 that phosphorylates MEF2C protein. Activated MEF2C protein can bind to its transcriptional response elements. Then the luciferase is expressed. In a 96-well plate (96F nuncleon ref137101 thermofisher), 50,000 cells were inoculated in 142.5 μl of RPMI medium containing 10% fetal calf serum, 1% glutamine, and 1 μg/ml doxycycline. […] The luciferase activity was measured using the Kit Bright Glo Luminescent Cell Assay Cat E2610 (Promega) according to the manufacturer's protocol. Luminescence was determined using 0.2 second reading/well using a Tecan SPARK. IC50 values were calculated using XLFIT5 for Microsoft Excel using method 205.

ERK5 [3] = molecular target: T1, ERK5
Target sequence in this assay (Q13164 whole entry): as above
Protocol: as §1, §2

Row | Compound | IC50 (ERK5 [1]) | IC50 (ERK5 [2]) | IC50 (ERK5 [3])
1 | O=C1Nc2ccccc2OC1CC(=O)N1CCC(c2ccnc3[nH]c(C4CCOCC4)nc23)CC1 (centres unmarked) [Example 106, 2-[2-oxo-2-[4-(2-tetrahydropyran-4-yl-3H-imidazo[4,5-b]pyridin-7-yl)-1-piperidyl]ethyl]-4H-1,4-benzoxazin-3-one] | 25.7 µM | > 10 µM | –
2 | O=C(c1ccc(S(F)(F)(F)(F)F)cc1)N1CCC(c2ccnc3[nH]c(C4CCCO4)nc23)CC1 (single isomer, unassigned) [Example 298, [4-(pentafluoro-λ^6-sulfanyl)phenyl]-[4-[2-[tetrahydrofuran-2-yl]-3H-imidazo[4,5-b]pyridin-7-yl]-1-piperidyl]methanone] | 0.166 µM | 0.163 µM | –
3 | Nc1cc(OC(F)(F)F)ccc1C(=O)N1CCC(c2c(F)cnc3[nH]c(C45CC(C(F)(F)F)(C4)C5)nc23)CC1 [Example 432, [2-amino-4-(trifluoromethoxy)phenyl]-[4-[6-fluoro-2-[3-(trifluoromethyl)-1-bicyclo[1.1.1]pentanyl]-3H-imidazo[4,5-b]pyridin-7-yl]-1-piperidyl]methanone] | 3.87 µM | 0.016 to 0.043 µM | –
4 | CN1CCC(c2nc3c(C4CCN(C(=O)c5ccc(OC(F)(F)F)cc5)CC4)ccnc3[nH]2)C1 (single isomer, unassigned) [Example 24, [4-[2-(1-Methylpyrrolidin-3-yl)-3H-imidazo[4,5-b]pyridin-7-yl]-1-piperidyl]-[4-(trifluoromethoxy)phenyl]methanone] | 0.148 µM | 0.15 µM | –
5 | Nc1cc(OC(F)(F)F)ccc1C(=O)N1CCC(c2ccnc3[nH]c(C4CNCCO4)nc23)CC1 (single isomer, unassigned) [Example 96, [2-amino-4-(trifluoromethoxy)phenyl]-[4-[2-[morpholin-2-yl]-3H-imidazo[4,5-b]pyridin-7-yl]-1-piperidyl]methanone] | 0.083 µM | 0.087 µM | –
6 | O=C(c1cnn(Cc2ccccc2Cl)c1)N1CCC(c2ccnc3[nH]c(C4CCOCC4)nc23)CC1 [Example 112, [1-[(2-chlorophenyl)methyl]pyrazol-4-yl]-[4-(2-tetrahydropyran-4-yl-3H-imidazo[4,5-b]pyridin-7-yl)-1-piperidyl]methanone] | 14.9 µM | > 10 µM | –
7 | O=C(c1cn(-c2ccc(F)cc2)cn1)N1CCC(c2ccnc3[nH]c(C4CCOCC4)nc23)CC1 [Example 120, [1-(4-fluorophenyl)imidazol-4-yl]-[4-(2-tetrahydropyran-4-yl-3H-imidazo[4,5-b]pyridin-7-yl)-1-piperidyl]methanone] | 6.6 µM | > 10 µM | –
8 | COC12CC(c3nc4c(C5CCN(C(=O)c6ccc(OC(F)(F)F)cc6N)CC5)ccnc4[nH]3)(C1)C2 [Example 150, [2-amino-4-(trifluoromethoxy)phenyl]-[4-[2-(3-methoxy-1-bicyclo[1.1.1]pentanyl)-3H-imidazo[4,5-b]pyridin-7-yl]-1-piperidyl]methanone] | 0.013 µM | 0.013 µM | –
9 | COC12CC(c3nc4c(C5CCN(C(=O)c6ccc(OC(F)(F)F)cc6)CC5)c(F)cnc4[nH]3)(C1)C2 [Example 426, [4-[6-fluoro-2-(3-methoxy-1-bicyclo[1.1.1]pentanyl)-3H-imidazo[4,5-b]pyridin-7-yl]-1-piperidyl]-[4-(trifluoromethoxy)phenyl]methanone] | 0.069 µM | – | 0.01 µM
10 | O=C(c1ccc(S(F)(F)(F)(F)F)cc1)N1CCC(c2c(F)cnc3[nH]c(C4CCOC4)nc23)CC1 (single isomer, unassigned) [Example 400, [4-[6-fluoro-2-[tetrahydrofuran-3-yl]-3H-imidazo[4,5-b]pyridin-7-yl]-1-piperidyl]-[4-(pentafluoro-λ^6-sulfanyl)phenyl]methanone] | 0.684 µM | 0.104 to 0.165 µM | –
11 | COC12CC(c3nc4c(C5CCN(C(=O)c6ccc(S(F)(F)(F)(F)F)cc6)CC5)ccnc4[nH]3)(C1)C2 [Example 302, [4-[2-(3-methoxy-1-bicyclo[1.1.1]pentanyl)-3H-imidazo[4,5-b]pyridin-7-yl]-1-piperidyl]-[4-(pentafluoro-λ^6-sulfanyl)phenyl]methanone] | 0.095 µM | 0.097 µM | –
12 | Nc1cc(OC(F)(F)F)ccc1C(=O)N1CCC(c2ccnc3[nH]c(C4CCN(CC(F)F)CC4)nc23)CC1 [Example 37, [2-Amino-4-(trifluoromethoxy)phenyl]-[4-[2-[1-(2,2-difluoroethyl)-4-piperidyl]-3H-imidazo[4,5-b]pyridin-7-yl]-1-piperidyl]methanone] | 0.047 µM | 0.047 µM | –
13 | CC12CC(N)(C1)C(c1nc3c(C4CCN(C(=O)c5ccc(OC(F)(F)F)cc5N)CC4)ccnc3[nH]1)O2 (single isomer, unassigned) [Example 254, [4-[2-[4-amino-1-methyl-2-oxabicyclo[2.1.1]hexan-3-yl]-3H-imidazo[4,5-b]pyridin-7-yl]-1-piperidyl]-[2-amino-4-(trifluoromethoxy)phenyl]methanone] | 0.207 µM | 0.203 µM | –
14 | O=C(C1CC1c1cccc(O)c1)N1CCC(c2ccnc3[nH]c(C4CCOCC4)nc23)CC1 (centres unmarked) [Example 86, [2-(3-hydroxyphenyl)cyclopropyl]-[4-(2-tetrahydropyran-4-yl-3H-imidazo[4,5-b]pyridin-7-yl)-1-piperidyl]methanone] | 25.2 µM | > 10 µM | –
15 | Nc1nc2ccccc2nc1C(=O)N1CCC(c2ccnc3[nH]c(C4CCOCC4)nc23)CC1 [Example 116, (3-aminoquinoxalin-2-yl)-[4-(2-tetrahydropyran-4-yl-3H-imidazo[4,5-b]pyridin-7-yl)-1-piperidyl]methanone] | 16.4 µM | > 10 µM | –
16 | O=C(C1CCN(c2ccccc2Cl)C1)N1CCC(c2ccnc3[nH]c(C4CCOCC4)nc23)CC1 (centres unmarked) [Example 118, [1-(2-chlorophenyl)pyrrolidin-3-yl]-[4-(2-tetrahydropyran-4-yl-3H-imidazo[4,5-b]pyridin-7-yl)-1-piperidyl]methanone] | 18 µM | > 10 µM | –
17 | Nc1cc(OC(F)(F)F)ccc1C(=O)N1CCC(c2ccnc3[nH]c(CC4CCOC4)nc23)CC1 (single isomer, unassigned) [Example 2, [2-Amino-4-(trifluoromethoxy)phenyl]-[4-[2-(tetrahydrofuran-3-ylmethyl)-3H-imidazo[4,5-b]pyridin-7-yl]-1-piperidyl]methanone] | 0.14 µM | 0.134 µM | –
18 | O=C(c1ccc(OC(F)(F)F)cc1)N1CCC(c2c(F)cnc3[nH]c(C45CC(C(F)(F)F)(C4)C5)nc23)CC1 [Example 436, [4-[6-fluoro-2-[3-(trifluoromethyl)-1-bicyclo[1.1.1]pentanyl]-3H-imidazo[4,5-b]pyridin-7-yl]-1-piperidyl]-[4-(trifluoromethoxy)phenyl]methanone] | 4.5 µM | 0.038 to 0.088 µM | –
19 | Nc1cc(S(F)(F)(F)(F)F)ccc1C(=O)N1CCC(c2ccnc3[nH]c(C4CCOC4)nc23)CC1 (single isomer, unassigned) [Example 308, [2-amino-4-(pentafluoro-λ^6-sulfanyl)phenyl]-[4-[2-[tetrahydrofuran-3-yl]-3H-imidazo[4,5-b]pyridin-7-yl]-1-piperidyl]methanone] | 0.097 µM | 0.099 µM | –
20 | Nc1c(C(=O)N2CCC(c3ccnc4[nH]c(C5CCOCC5)nc34)CC2)ccc(OC(F)(F)F)c1F [Example 189, [2-amino-3-fluoro-4-(trifluoromethoxy)phenyl]-[4-(2-tetrahydropyran-4-yl-3H-imidazo[4,5-b]pyridin-7-yl)-1-piperidyl]methanone] | 0.036 µM | 0.037 µM | –
21 | O=C(c1ccc(C(F)(F)F)c(=O)[nH]1)N1CCC(c2ccnc3[nH]c(C4CCOCC4)nc23)CC1 [Example 53, 6-[4-(2-Tetrahydropyran-4-yl-3H-imidazo[4,5-b]pyridin-7-yl)piperidine-1-carbonyl]-3-(trifluoromethyl)-1H-pyridin-2-one, hydrochloride] | 0.262 µM | > 10 µM | –
22 | Nc1cc(OC(F)(F)F)ccc1C(=O)N1CCC(c2ccnc3[nH]c(C4COCCO4)nc23)CC1 (single isomer, unassigned) [Example 144, [2-amino-4-(trifluoromethoxy)phenyl]-[4-[2-[1,4-dioxan-2-yl]-3H-imidazo[4,5-b]pyridin-7-yl]-1-piperidyl]methanone] | 0.102 µM | 0.098 µM | –
23 | O=C(c1ccc(S(F)(F)(F)(F)F)cc1)N1CCC(c2ccnc3[nH]c(C4CCOC4)nc23)CC1 (single isomer, unassigned) [Example 301, [4-(pentafluoro-λ^6-sulfanyl)phenyl]-[4-[2-[tetrahydrofuran-3-yl]-3H-imidazo[4,5-b]pyridin-7-yl]-1-piperidyl]methanone] | 0.273 µM | 0.284 µM | –
24 | O=C(c1ccc(C(F)(F)F)[nH]c1=O)N1CCC(c2ccnc3[nH]c(C4CCOCC4)nc23)CC1 [Example 264, 3-[4-(2-tetrahydropyran-4-yl-3H-imidazo[4,5-b]pyridin-7-yl)piperidine-1-carbonyl]-6-(trifluoromethyl)-1H-pyridin-2-one] | 0.098 µM | > 10 µM | –
25 | CS(=O)(=O)c1ccc(C(=O)N2CCC(c3ccnc4[nH]c(C5CCOCC5)nc34)CC2)c(N)c1 [Example 84, (2-amino-4-methylsulfonyl-phenyl)-[4-(2-tetrahydropyran-4-yl-3H-imidazo[4,5-b]pyridin-7-yl)-1-piperidyl]methanone] | 26.8 µM | > 10 µM | –
26 | Nc1c(C(=O)N2CCC(c3ccnc4[nH]c(C5CCOCC5)nc34)CC2)cnn1-c1ccccc1 [Example 105, (5-amino-1-phenyl-pyrazol-4-yl)-[4-(2-tetrahydropyran-4-yl-3H-imidazo[4,5-b]pyridin-7-yl)-1-piperidyl]methanone] | 6.91 µM | 6.64 µM | –
27 | O=C(c1ccc(S(F)(F)(F)(F)F)cc1)N1CCC(c2c(F)cnc3[nH]c(C4CN(C(=O)O)C5COCC5O4)nc23)CC1 (racemic) [Example 455, (rac)-2-[6-fluoro-7-[1-[4-(pentafluoro-λ^6-sulfanyl)benzoyl]-4-piperidyl]-3H-imidazo[4,5-b]pyridin-2-yl]-2,3,4a,5,7,7a-hexahydrofuro[3,4-b][1,4]oxazine-4-carboxylic acid] | 6.46 µM | – | –
